Inhibition data for six molecules are collected here from ChEMBL document CHEMBL1125693, “Synthesis and biological activity of new halo-steroidal antiestrogens” (J Med Chem, 1991).

Assay [1] deals with T1, Estrogen receptor (Mus musculus) (UniProt O08537+P19785). Briefly: Inhibition of estradiol-induced uterine weight gain in ovariectomized BALB/c mice at 3 ug dose twice daily. It counts as functional.
Assay [2] deals with T1, Estrogen receptor (Mus musculus). Briefly: Inhibition of estradiol-induced uterine weight gain in ovariectomized BALB/c mice at 20 ug dose twice daily. It counts as functional.

T1 sequence (O08537 whole entry, looked up): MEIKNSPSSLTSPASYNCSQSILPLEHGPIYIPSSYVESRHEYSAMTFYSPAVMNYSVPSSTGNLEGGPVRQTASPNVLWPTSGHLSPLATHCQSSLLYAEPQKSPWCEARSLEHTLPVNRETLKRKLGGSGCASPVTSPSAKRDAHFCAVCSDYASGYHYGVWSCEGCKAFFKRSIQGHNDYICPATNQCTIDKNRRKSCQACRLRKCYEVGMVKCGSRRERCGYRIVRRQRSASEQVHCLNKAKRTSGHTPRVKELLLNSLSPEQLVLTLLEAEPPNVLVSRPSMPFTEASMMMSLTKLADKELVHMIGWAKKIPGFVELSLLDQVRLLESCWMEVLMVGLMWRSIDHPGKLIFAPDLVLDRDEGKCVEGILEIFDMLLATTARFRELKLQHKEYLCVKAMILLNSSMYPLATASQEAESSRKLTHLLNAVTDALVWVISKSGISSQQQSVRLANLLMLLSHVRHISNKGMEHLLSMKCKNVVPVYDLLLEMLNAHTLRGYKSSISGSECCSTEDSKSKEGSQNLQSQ
T1 sequence (P19785 whole entry, looked up): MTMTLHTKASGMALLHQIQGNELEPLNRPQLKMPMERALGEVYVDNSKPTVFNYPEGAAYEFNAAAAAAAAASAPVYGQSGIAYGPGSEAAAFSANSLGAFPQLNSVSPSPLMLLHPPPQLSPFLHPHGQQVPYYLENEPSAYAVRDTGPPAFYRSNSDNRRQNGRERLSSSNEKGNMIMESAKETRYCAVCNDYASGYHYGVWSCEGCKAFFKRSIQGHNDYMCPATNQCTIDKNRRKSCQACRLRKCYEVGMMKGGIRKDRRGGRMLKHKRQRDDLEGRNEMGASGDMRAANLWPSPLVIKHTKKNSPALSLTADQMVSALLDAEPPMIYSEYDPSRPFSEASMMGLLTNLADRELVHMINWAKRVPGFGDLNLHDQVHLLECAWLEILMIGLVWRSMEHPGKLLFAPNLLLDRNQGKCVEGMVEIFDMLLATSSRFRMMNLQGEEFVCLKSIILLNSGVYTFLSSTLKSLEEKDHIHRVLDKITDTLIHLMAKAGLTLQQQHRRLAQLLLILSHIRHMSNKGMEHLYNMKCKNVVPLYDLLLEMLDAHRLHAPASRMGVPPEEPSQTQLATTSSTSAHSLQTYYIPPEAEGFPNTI

In general, inhibition refers to how much of the control response was suppressed. With `CCCCN(C)C(=O)CCCCCCCCCC[C@@H]1Cc2cc(O)ccc2[C@H]2CC[C@]3(C)[C@@H](O)[C@H](Br)C[C@H]3[C@H]12`, the inhibition in assay [1] turned out to be 52%; in assay [2] it was 79%.

Regarding `CCCCN(C)C(=O)CCCCCCCCCC[C@@H]1Cc2cc(O)ccc2[C@H]2CC[C@]3(C)[C@H](O)[C@H](Br)C[C@H]3[C@H]12`, the inhibition was 60% in assay [1] and 78% in assay [2].

Regarding `CCCCN(C)C(=O)CCCCCCCCCC[C@@H]1Cc2cc(O)ccc2[C@H]2CC[C@]3(C)[C@@H](O)[C@H](I)C[C@H]3[C@H]12`, the inhibition in assay [1] is 63%.

On to `CCCCN(C)C(=O)CCCCCCCCCC[C@@H]1Cc2cc(O)ccc2[C@H]2CC[C@]3(C)[C@@H](O)[C@H](Cl)C[C@H]3[C@H]12`, for which the inhibition in assay [1] was found to be 74%.

In assay [1], `CCCCN(C)C(=O)CCCCCCCCCC[C@@H]1Cc2cc(O)ccc2[C@H]2CC[C@]3(C)[C@@H](O)CC[C@H]3[C@H]12` gave an inhibition of 40%.

`CCCCN(C)C(=O)CCCCCCCCCC[C@@H]1Cc2cc(O)ccc2[C@H]2CC[C@]3(C)[C@H](O)[C@H](Cl)C[C@H]3[C@H]12` had an inhibition in assay [1] of 35%.
